The CheMixHub viscosity set

Test: xn = mol fraction of the nth substance listed
Details: 101 kPa

C[N+](=O)[O-] + CC(C)CO
298.15 K
Details | viscosity [mPa·s]
x1 = 0.1592 | 2.304
x1 = 0.2992 | 1.779
x1 = 0.4225 | 1.382
x1 = 0.5327 | 1.108
x1 = 0.6306 | 0.9667
x1 = 0.7193 | 0.822
x1 = 0.7993 | 0.7537
x1 = 0.8724 | 0.7066
x1 = 0.9387 | 0.6682

CCCCOCCOCCOCCO + O
viscosity [mPa·s]
Details | 293.15 K | 303.15 K | 313.15 K | 323.15 K
x1 = 0.009612 | 1.536 | 1.175 | 0.9391 | 0.7657
x1 = 0.02136 | 2.342 | 1.741 | 1.356 | 1.094
x1 = 0.03602 | 3.496 | 2.526 | 1.935 | 1.519
x1 = 0.05509 | 5.103 | 3.614 | 2.685 | 2.137
x1 = 0.08023 | 7.018 | 4.832 | 3.562 | 2.692
x1 = 0.1156 | 9.156 | 6.189 | 4.476 | 3.293
x1 = 0.1685 | 11.21 | 7.424 | 5.289 | 3.913
x1 = 0.2571 | 12.63 | 8.311 | 5.912 | 4.406
x1 = 0.3308 | 12.68 | 8.439 | 6.038 | 4.477
x1 = 0.4398 | 12.35 | 8.238 | 5.926 | 4.406
x1 = 0.5322 | 11.78 | 7.929 | 5.747 | 4.329
x1 = 0.5991 | 11.36 | 7.685 | 5.612 | 4.257
x1 = 0.7291 | 10.51 | 7.271 | 5.407 | 4.147
x1 = 0.8068 | 10.13 | 7.083 | 5.264 | 4.088
x1 = 0.8905 | 9.778 | 6.856 | 5.143 | 3.936
